Results taken from patent US12336981B2, “Compounds and compositions for the inhibition of NAMPT” (Valo Health, Inc., priority 2010, dated 2025).
Where two headings read alike, the source gives them in different places.

Key:
NAMPT = target: T1, NAMPT (Homo sapiens, UniProt P43490); assay: Biochemical inhibition assay: NAMPT enzymatic reaction, NMN quantified by mass spectrometry; details: NAMPT enzymatic reaction; read-out: Biochem IC50
T1 construct: His tag; host or cells: E. coli
Procedure, shortened: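 Inhibition of E. coli-expressed His-tagged human NAMPT, measured as NMN formation by mass spectrometry after a 30 min room-temperature reaction containing 1 μM NAM, 100 μM PRPP and 2.5 mM ATP.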

A2780 cells = assay: In-vitro cell proliferation assay (SRB), A2780 cells; type: cell-based; details: Homo sapiens, A2780, 72 h, A2780 cells, 72 hours, read-out: A2780 IC50
Procedure, shortened: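 Proliferation is assessed by sulforhodamine B staining following a 72-hour incubation with compound dilutions containing 0.1% DMSO.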

T1 sequence (P43490 whole entry): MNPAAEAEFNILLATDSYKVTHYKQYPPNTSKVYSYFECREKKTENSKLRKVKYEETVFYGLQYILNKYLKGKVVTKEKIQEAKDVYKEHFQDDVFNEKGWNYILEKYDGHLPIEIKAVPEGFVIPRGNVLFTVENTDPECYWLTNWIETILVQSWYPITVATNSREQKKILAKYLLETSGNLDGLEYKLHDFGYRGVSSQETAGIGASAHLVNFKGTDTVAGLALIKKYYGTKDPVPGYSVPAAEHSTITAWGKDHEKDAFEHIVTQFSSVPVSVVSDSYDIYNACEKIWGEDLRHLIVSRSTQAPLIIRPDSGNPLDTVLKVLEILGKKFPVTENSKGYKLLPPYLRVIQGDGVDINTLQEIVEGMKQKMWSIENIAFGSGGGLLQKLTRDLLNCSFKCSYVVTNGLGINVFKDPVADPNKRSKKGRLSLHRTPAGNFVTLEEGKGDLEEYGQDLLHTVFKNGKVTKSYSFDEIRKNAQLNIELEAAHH

SMILES | IC50 (NAMPT) | IC50 (A2780 cells; SRB assay) | IC50 (A2780 cells; SRB)
Cc1cc(F)ccc1S(=O)(=O)c1ccc(CNC(=O)c2cc3cnccc3[nH]2)cc1 [N-({4-[(4-fluoro-2-methylbenzene)sulfonyl]phenyl}methyl)-1H-pyrrolo[3,2-c]pyridine-2-carboxamide] | 0.019 µM | 0.027 µM | 
COc1cc(S(=O)(=O)c2ccc(CNC(=O)c3cnc4[nH]ncc4c3)cc2)ccc1F [N-({4-[(4-fluoro-3-methoxybenzene)sulfonyl]phenyl}methyl)-1H-pyrazolo[3,4-b]pyridine-5-carboxamide] | 0.0239 µM |  | 0.0115 µM
COc1cc(S(=O)(=O)c2ccc(CNC(=O)c3cc4ccncc4s3)cc2)ccc1F [N-({4-[(4-fluoro-3-methoxybenzene)sulfonyl]phenyl}methyl)thieno[2,3-c]pyridine-2-carboxamide] | 0.009 µM |  | 0.0031 µM
Cc1cc(S(=O)(=O)c2ccc(CNC(=O)c3cc4cnccc4[nH]3)cc2)ccc1F [N-({4-[(4-fluoro-3-methylbenzene)sulfonyl]phenyl}methyl)-1H-pyrrolo[3,2-c]pyridine-2-carboxamide] | 0.009 µM | 0.007 µM | 
Cc1cc(S(=O)(=O)c2ccc(CNC(=O)c3ccc4nccn4c3)cc2)ccc1F [N-({4-[(4-fluoro-3-methylbenzene)sulfonyl]phenyl}methyl)imidazo[1,2-a]pyridine-6-carboxamide] | 0.0235 µM |  | 0.00714 µM
Cc1cc(S(=O)(=O)c2ccc(CNC(=O)c3cc4ccncc4s3)cc2)ccc1F [N-({4-[(4-fluoro-3-methylbenzene)sulfonyl]phenyl}methyl)thieno[2,3-c]pyridine-2-carboxamide] | 0.007 µM | 0.0029 µM | 
O=C(NCc1ccc(S(=O)(=O)c2ccc(F)cc2)cc1)c1cc2ccncc2s1 [N-({4-[(4-fluorobenzene)sulfonyl]phenyl}methyl)thieno[2,3-c]pyridine-2-carboxamide] | 0.003 µM | 0.01 µM | 
CS(=O)(=O)c1ccc(S(=O)(=O)c2ccc(CNC(=O)c3cnc4[nH]ncc4c3)cc2)cc1 [N-({4-[(4-methanesulfonylbenzene)sulfonyl]phenyl}methyl)-1H-pyrazolo[3,4-b]pyridine-5-carboxamide] | 0.0293 µM |  | 0.0238 µM
CS(=O)(=O)c1ccc(S(=O)(=O)c2ccc(CNC(=O)c3cc4cnccc4[nH]3)cc2)cc1 [N-({4-[(4-methanesulfonylbenzene)sulfonyl]phenyl}methyl)-1H-pyrrolo[3,2-c]pyridine-2-carboxamide] | 0.024 µM | 0.012 µM | 
CS(=O)(=O)c1ccc(S(=O)(=O)c2ccc(CNC(=O)c3ccc4nccn4c3)cc2)cc1 [N-({4-[(4-methanesulfonylbenzene)sulfonyl]phenyl}methyl)imidazo[1,2-a]pyridine-6-carboxamide] | 0.105 µM |  | 0.0247 µM
COc1cc(C)c(S(=O)(=O)c2ccc(CNC(=O)c3cnc4[nH]ncc4c3)cc2)cc1C [N-({4-[(4-methoxy-2,5-dimethylbenzene)sulfonyl]phenyl}methyl)-1H-pyrazolo[3,4-b]pyridine-5-carboxamide] | 0.0368 µM |  | 0.0236 µM
COc1ccc(S(=O)(=O)c2ccc(CNC(=O)c3cnc4[nH]ncc4c3)cc2)c(C)c1 [N-({4-[(4-methoxy-2-methylbenzene)sulfonyl]phenyl}methyl)-1H-pyrazolo[3,4-b]pyridine-5-carboxamide] | 0.029 µM |  | 0.0555 µM
COc1ccc(S(=O)(=O)c2ccc(CNC(=O)c3cc4cnccc4[nH]3)cc2)c(C)c1 [N-({4-[(4-methoxy-2-methylbenzene)sulfonyl]phenyl}methyl)-1H-pyrrolo[3,2-c]pyridine-2-carboxamide] | 0.024 µM | 0.024 µM | 
COc1ccc(S(=O)(=O)c2ccc(CNC(=O)c3cc4ccncc4o3)cc2)c(C)c1 [N-({4-[(4-methoxy-2-methylbenzene)sulfonyl]phenyl}methyl)furo[2,3-c]pyridine-2-carboxamide] | 0.0216 µM |  | 0.0351 µM
COc1ccc(NS(=O)(=O)c2ccc(CNC(=O)c3cc4cnccc4[nH]3)cc2)c(C)c1 [N-({4-[(4-methoxy-2-methylphenyl)sulfamoyl]phenyl}methyl)-1H-pyrrolo[3,2-c]pyridine-2-carboxamide] | 1.45 µM | > 30 µM | 
COc1c(C)cc(S(=O)(=O)c2ccc(CNC(=O)c3cnc4[nH]ncc4c3)cc2)cc1C [N-({4-[(4-methoxy-3,5-dimethylbenzene)sulfonyl]phenyl}methyl)-1H-pyrazolo[3,4-b]pyridine-5-carboxamide] | 0.005 µM |  | 0.00185 µM
COc1ccc(S(=O)(=O)c2ccc(CNC(=O)c3cc4cnccc4[nH]3)cc2)cc1C [N-({4-[(4-methoxy-3-methylbenzene)sulfonyl]phenyl}methyl)-1H-pyrrolo[3,2-c]pyridine-2-carboxamide] | 0.01 µM | 0.002 µM | 
COc1ccc(S(=O)(=O)c2ccc(CNC(=O)c3ccc4nccn4c3)cc2)cc1C [N-({4-[(4-methoxy-3-methylbenzene)sulfonyl]phenyl}methyl)imidazo[1,2-a]pyridine-6-carboxamide] | 0.0141 µM |  | 0.00532 µM

SMILES | IC50 (NAMPT) | IC50 (A2780 cells; SRB assay) | IC50 (A2780 cells; SRB)
COc1ccc(S(=O)(=O)c2ccc(CNC(=O)c3cc4cnccc4[nH]3)cc2)cc1 [N-({4-[(4-methoxybenzene)sulfonyl]phenyl}methyl)-1H-pyrrolo[3,2-c]pyridine-2-carboxamide] | 0.011 µM | 0.009 µM | 
COc1ccc(S(=O)(=O)c2ccc(CNC(=O)c3cc4ccncc4o3)cc2)cc1 [N-({4-[(4-methoxybenzene)sulfonyl]phenyl}methyl)furo[2,3-c]pyridine-2-carboxamide] | 0.0055 µM |  | 0.006 µM
COc1ccc(S(=O)(=O)c2ccc(CNC(=O)c3ccc4nccn4c3)cc2)cc1 [N-({4-[(4-methoxybenzene)sulfonyl]phenyl}methyl)imidazo[1,2-a]pyridine-6-carboxamide] | 0.00974 µM |  | 0.00866 µM
COc1ccc(S(=O)(=O)c2ccc(CNC(=O)c3cc4ccncc4s3)cc2)cc1 [N-({4-[(4-methoxybenzene)sulfonyl]phenyl}methyl)thieno[2,3-c]pyridine-2-carboxamide] | 0.005 µM | 0.0027 µM | 
Cc1ccc(S(=O)(=O)c2ccc(CNC(=O)c3cc4cnccc4[nH]3)cc2)cc1 [N-({4-[(4-methylbenzene)sulfonyl]phenyl}methyl)-1H-pyrrolo[3,2-c]pyridine-2-carboxamide] | 0.006 µM | 0.009 µM | 
Cc1ccc(S(=O)(=O)c2ccc(CNC(=O)c3cc4ccncc4o3)cc2)cc1 [N-({4-[(4-methylbenzene)sulfonyl]phenyl}methyl)furo[2,3-c]pyridine-2-carboxamide] | 0.121 µM |  | 0.006 µM
Cc1ccc(S(=O)(=O)c2ccc(CNC(=O)c3ccc4nccn4c3)cc2)cc1 [N-({4-[(4-methylbenzene)sulfonyl]phenyl}methyl)imidazo[1,2-a]pyridine-6-carboxamide] | 0.0176 µM |  | 0.012 µM
Cc1ccc(S(=O)(=O)c2ccc(CNC(=O)c3cc4ccncc4s3)cc2)cc1 [N-({4-[(4-methylbenzene)sulfonyl]phenyl}methyl)thieno[2,3-c]pyridine-2-carboxamide] | 0.005 µM | 0.005 µM | 
O=C(NCc1ccc(S(=O)(=O)c2ccc(-c3ccccc3)cc2)cc1)c1ccc2ncsc2c1 [N-({4-[(4-phenylbenzene)sulfonyl]phenyl}methyl)-1,3-benzothiazole-6-carboxamide] | 0.0207 µM |  | 0.1 to 1 µM
O=C(NCc1ccc(S(=O)(=O)c2ccc(-c3ccccc3)cc2)cc1)c1cc2cnccc2[nH]1 [N-({4-[(4-phenylbenzene)sulfonyl]phenyl}methyl)-1H-pyrrolo[3,2-c]pyridine-2-carboxamide] | 0.031 µM |  | 0.0133 µM
O=C(NCc1ccc(S(=O)(=O)c2ccc(-c3ccccc3)cc2)cc1)c1cc2ccncc2o1 [N-({4-[(4-phenylbenzene)sulfonyl]phenyl}methyl)furo[2,3-c]pyridine-2-carboxamide] | 0.0037 µM |  | 0.0069 µM
O=C(NCc1ccc(S(=O)(=O)CCCCc2ccccc2)cc1)c1cc2cnccc2[nH]1 [N-({4-[(4-phenylbutane)sulfonyl]phenyl}methyl)-1H-pyrrolo[3,2-c]pyridine-2-carboxamide] | 0.216 µM |  | 0.0715 µM
O=C(NCc1ccc(S(=O)(=O)Nc2cccc3c2CCCC3)cc1)c1cc2cnccc2[nH]1 [N-({4-[(5,6,7,8-tetrahydronaphthalen-1-yl)sulfamoyl]phenyl}methyl)-1H-pyrrolo[3,2-c]pyridine-2-carboxamide] | > 30 µM | > 30 µM | 
COc1ccc(C(C)=O)cc1S(=O)(=O)c1ccc(CNC(=O)c2cc3cnccc3[nH]2)cc1 [N-({4-[(5-acetyl-2-methoxybenzene)sulfonyl]phenyl}methyl)-1H-pyrrolo[3,2-c]pyridine-2-carboxamide] | 0.02 µM | 0.006 µM | 
COc1ccc(C(C)=O)cc1S(=O)(=O)c1ccc(CNC(=O)c2ccc3nccn3c2)cc1 [N-({4-[(5-acetyl-2-methoxybenzene)sulfonyl]phenyl}methyl)imidazo[1,2-a]pyridine-6-carboxamide] | 0.0379 µM |  | 0.0127 µM
O=C(NCc1ccc(S(=O)(=O)c2cc(Cl)ccc2O)cc1)c1ccc2nccn2c1 [N-({4-[(5-chloro-2-hydroxybenzene)sulfonyl]phenyl}methyl)imidazo[1,2-a]pyridine-6-carboxamide] | 0.014 µM |  | 0.168 µM
COc1ccc(Cl)cc1S(=O)(=O)c1ccc(CNC(=O)c2cc3cnccc3[nH]2)cc1 [N-({4-[(5-chloro-2-methoxybenzene)sulfonyl]phenyl}methyl)-1H-pyrrolo[3,2-c]pyridine-2-carboxamide] | 0.006 µM | 0.002 µM | 
